“Also recorded” adds a separate entry of the source.
Tests used:
[1] = system: Rap1; test: Rap1 pulldown assay in platelets; type: cell-based, human; conditions: thrombin
Protocol: Platelets were diluted to 5×10^8 platelets/mL in Tyrode's buffer and treated with various reagents for the indicated times. Immediately following treatment, platelets were pelleted at 13,000 g for 30 seconds at 4° C. and resuspended in ice-cold lysis buffer containing 20 mM HEPES (pH 7.5), 100 mM NaCl, 10 mM EGTA, 20 mM MgCl2, 8 mM α-glycerophosphate, 1% Triton X-100, 1 mM phenylmethylsulfonylfluoride, 40 mM NaF, 1 mM Na3VO4, 10 μg/mL aprotinin, and 10 μg/mL leupeptin. Lysates were centrifuged at 13,000 g for 5 minutes at 4° C. and the supernatants were incubated for 15 minutes on a tumbler at 4° C. with glutathione Sepharose 4B beads (Amersham) prebound with a GST-Ral GDS RBD fusion protein (kind gift of J. Silvio Gutkind, NIH, Bethesda, Md.). Bead complexes were washed by centrifugation at 6,000 g for 30 seconds at 4° C. followed by resuspension in 0.5 mL lysis buffer; 2 washes were performed for each sample. After the second wash, beads were resuspended in an equal volume of 2×SDS sample buffer and stored at −20° C. For Western analysis, bead-bound proteins in sample buffer were boiled for 10 minutes and subjected to electrophoresis on NuPAGE 10% Bis-Tris gels (Invitrogen, Carlsbad, Calif.), transferred to Immobilon-P PVDF membranes (Millipore, Billerica, Mass.), and blotted with rabbit polyclonal anti-Rapt (sc-65; Santa Cruz Biotechnology, Santa Cruz, Calif.).

[2] = system: HAVSMC; test: Actin cytoskeleton staining (F-actin) in HAVSMC; type: cell-based, human
Protocol: VSMC were grown on glass well slides (Lab-Tek, Nunc) under standard growth conditions. Cells were incubated at 37° C. for 1 hour in serum and additive deficient growth medium and the indicated treatment agents, after which the media was removed and the cells were fixed in 4% paraformaldehyde in PBS (pH 7.4, Fisher Scientific) for 15 minutes at room temperature. After washing with DPBS, cells were permeabilized for 5 minutes in 0.1% Triton X-100 in PBS and then blocked in M199E/2% BSA for 30 min at room temperature. Cells were stained for F-actin with 1 unit/200 μl medium/1% BSA of Oregon Green 488 phalloidin (Molecular Probes). Slides were imaged using an Olympus IX70 microscope and photographed at constant exposure and gain. In other experiments VSMC were plated on 24-well culture plates (Nunc, Denmark) in smooth muscle growth medium (50,000 cells/well) and weaned from serum and additives over 24 hours. Cell treatment was performed with the indicated agents in plain medium with 0.1% BSA for 5 minutes. Wells were processed as described above. Following staining with phalloidin cells were incubated in methanol for 30 minutes, samples aliquoted to 96-well black plates and fluorescence read at 520 nm (excitation 495 nm). Data was normalized to total protein. Results represent the mean±SD of at least three separate experiments.

[3] = system: human platelets; test: Human platelet adhesion assay; type: cell-based; conditions: for stimulation of adhesion by TSP1: fibrinogen, in the presence of NO
Protocol: Bacteriological Petri dishes (35×10 mm, Becton Dickinson Labware) were pre-coated with collagen (3 μg/ml) or fibrinogen (15 μg/mL) overnight. Following aspiration of non-adherent matrix, dishes were blocked with 1% BSA. Fresh platelets were washed and suspended in Tyrode's buffer and allowed to adhere for 30 minutes. Plates were washed with PBS, fixed with 0.5% glutaraldehyde and stained with 0.02% toluidine blue. Adherent platelets were counted microscopically. In some experiments platelets were pre-incubated with the Rap1 geranylgeranyltransferase inhibitor GGTI-298 (10 μM) for 30 minutes prior to initiating adhesion.

[4] = system: white hairless Yucatan miniature pig VSMC; test: Porcine VSMC adhesion assay; type: cell-based; conditions: TSP1 0.022-2.2 nM
Protocol: White hairless Yucatan miniature pig VSMC were plated at 10,000 cells/well onto 96-well plates (Maxisorb, Nunc) precoated with type I collagen (3 μg/ml). Cells were incubated for 1 h in basal medium (lacking additives and serum) with 0.1% BSA and the indicated concentrations of TSP1 and DEA/NO. Plates were then washed with PBS, fixed with glutaraldehyde, stained with crystal violet, and washed. Absorbed stain was solubilized with acetic acid from fixed cells and the resulting color signal determined on a MR580Microelisa Auto Reader, (Dynatech, Alexandria, Va.) at 450 nm wavelength. In other experiments cell were treated with a CD47 or mismatch control morpholino as described for 48 h prior to harvesting.

Question: What does the source list for “TSP1: thrombospondin-1 prepared from human platelets”?
Answer: Rap1 activation (GTP loading) [1]: reversed the inhibition of Rap1 activation; also recorded: did not increase Rap1 activation; NO-induced actin disassembly ([2]; DEA/NO 10 μM): completely prevented actin disassembly by NO; disassembly of S1P-induced F actin by NO ([2]; S1P 100 nM, DEA/NO 10 μM): attenuated; F-actin levels ([2]; agent alone (TSP1 2.2 nM, S1P 100 nM)): slightly increased F-actin levels; basal adhesion of platelets on type I collagen and fibrinogen ([3]; TSP1 2.2 nM): moderately increased basal adhesion; decrease in platelet adhesion in response to exogenous NO ([3]; fibrinogen or collagen, DEA/NO 10 μM): lost; stimulation of adhesion by TSP1 [3]: 55±9%; stimulation of adhesion by TSP1 ([3]; following Rap1 blockade with GGTI-298): 25±8%; NO-stimulated adhesion to type I collagen [4]: inhibited
